From PubChem BioAssay AID1963449 (Molecular Pharmacology Branch, DTP, NCI, 2024)
pIC50: −log10 of the molar value.

System: 596521-263-R-J1-PDC complex spheroid growth
Experiment: Anticancer human tumor 596521-263-R-J1-PDC patient-derived soft tissue sarcoma cell line growth inhibition [Asc]
Conditions: for pIC50: curve of first compound; for viability, T/C: stronger effect = lower value
Summary of the method: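 Spheroid model: tumor line + HUVEC + hMSC. Single agents and combinations; top conc. at/near clinical Cmax (10 microM if undetermined), half-log dilutions. DMSO stocks at 800-fold test concentration.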

[1] = second compound 0.0316 µM, first compound 0.00316 µM
[2] = second compound 0.0316 µM, first compound 0.01 µM
[3] = second compound 0.0316 µM, first compound 0.0316 µM
[4] = second compound 0.0316 µM, first compound 0.1 µM
[5] = second compound 0.0316 µM, first compound 0.316 µM
[6] = second compound 0.0316 µM, first compound 1 µM
[7] = second compound 0.1 µM, first compound 0.00316 µM
[8] = second compound 0.1 µM, first compound 0.01 µM
[9] = second compound 0.1 µM, first compound 0.0316 µM
[10] = second compound 0.1 µM, first compound 0.1 µM
[11] = second compound 0.1 µM, first compound 0.316 µM
[12] = second compound 0.1 µM, first compound 1 µM
[13] = second compound 0.316 µM, first compound 0.00316 µM
[14] = second compound 0.316 µM, first compound 0.01 µM
[15] = second compound 0.316 µM, first compound 0.0316 µM
[16] = second compound 0.316 µM, first compound 0.1 µM
[17] = second compound 0.316 µM, first compound 0.316 µM
[18] = second compound 0.316 µM, first compound 1 µM
[19] = second compound 1 µM, first compound 0.00316 µM
[20] = second compound 1 µM, first compound 0.01 µM
[21] = second compound 1 µM, first compound 0.0316 µM
[22] = second compound 1 µM, first compound 0.1 µM
[23] = second compound 1 µM, first compound 0.316 µM
[24] = second compound 1 µM, first compound 1 µM
[25] = second compound 3.16 µM, first compound 0.00316 µM
[26] = second compound 3.16 µM, first compound 0.01 µM
[27] = second compound 3.16 µM, first compound 0.0316 µM
[28] = second compound 3.16 µM, first compound 0.1 µM
[29] = second compound 3.16 µM, first compound 0.316 µM
[30] = second compound 3.16 µM, first compound 1 µM
[31] = second compound 10 µM, first compound 0.00316 µM
[32] = second compound 10 µM, first compound 0.01 µM
[33] = second compound 10 µM, first compound 0.0316 µM
[34] = second compound 10 µM, first compound 0.1 µM
[35] = second compound 10 µM, first compound 0.316 µM
[36] = second compound 10 µM, first compound 1 µM
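Also: spheroids exposed to compounds for 7 days.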

`CCN1CCN(Cc2ccc(Nc3ncc(F)c(-c4cc(F)c5nc(C)n(C(C)C)c5c4)n3)nc2)CC1` + Cc1c(S(C)(=O)=O)c(-c2cc(F)cc(N3CCN(c4ccc(NS(=O)(=O)c5ccc(NC(CCN6CCC(C(=O)OCCCP(=O)(O)O)CC6)CSc6ccccc6)c(S(=O)(=O)C(F)(F)F)c5)cc4)CC3)c2)c(-c2ccc(Cl)cc2)n1C(C)C was tested, and the pIC50 (second compound 0.0316 µM) was < 6.00, the pIC50 (second compound 0.1 µM) was < 6.00 and the pIC50 (second compound 0.316 µM) was < 6.00. For the same compound, the pIC50 (second compound 1 µM) was < 6.00, the pIC50 (second compound 3.16 µM) was < 6.00 and the pIC50 (second compound 10 µM) was < 6.00. It also gave a viability, T/C [1] of 94.2%, a viability, T/C [2] of 95.2% and a viability, T/C [3] of 92%. The viability, T/C [4] was 84.3%, the viability, T/C [5] was 91.4% and the viability, T/C [6] was 97%. It also gave a viability, T/C [7] of 93.7%, a viability, T/C [8] of 91.5% and a viability, T/C [9] of 94.1%. It also gave a viability, T/C [10] of 81.1%, a viability, T/C [11] of 88.7% and a viability, T/C [12] of 82%. The viability, T/C [13] was 102%, the viability, T/C [14] was 79% and the viability, T/C [15] was 77.8%. For the same compound, the viability, T/C [16] was 75.7%, the viability, T/C [17] was 75.3% and the viability, T/C [18] was 83.8%. It also gave a viability, T/C [19] of 83%, a viability, T/C [20] of 73.9% and a viability, T/C [21] of 78.5%. It also gave a viability, T/C [22] of 70.5%, a viability, T/C [23] of 87.7% and a viability, T/C [24] of 67.1%. For the same compound, the viability, T/C [25] was 68.1%, the viability, T/C [26] was 69.6% and the viability, T/C [27] was 63.3%. It also gave a viability, T/C [28] of 59.6%, a viability, T/C [29] of 66.8% and a viability, T/C [30] of 66.4%. It also gave a viability, T/C [31] of 58.1%, a viability, T/C [32] of 57.1% and a viability, T/C [33] of 56%. It also gave a viability, T/C [34] of 54.8%, a viability, T/C [35] of 57% and a viability, T/C [36] of 55.1%.
`NC(=O)C(=Cn1cnc(-c2cc(C(F)(F)F)cc(C(F)(F)F)c2)n1)c1cncnc1` + Cc1c(S(C)(=O)=O)c(-c2cc(F)cc(N3CCN(c4ccc(NS(=O)(=O)c5ccc(NC(CCN6CCC(C(=O)OCCCP(=O)(O)O)CC6)CSc6ccccc6)c(S(=O)(=O)C(F)(F)F)c5)cc4)CC3)c2)c(-c2ccc(Cl)cc2)n1C(C)C was tested, and the pIC50 (second compound 0.0316 µM) was 7.57, the pIC50 (second compound 0.1 µM) was 7.60 and the pIC50 (second compound 0.316 µM) was 7.73. The pIC50 (second compound 1 µM) was 7.81, the pIC50 (second compound 3.16 µM) was 8.07 and the pIC50 (second compound 10 µM) was > 9.02. For the same compound, the viability, T/C (second compound 0.0316 µM, first compound 0.000949 µM) was 98.4%, the viability, T/C (second compound 0.0316 µM, first compound 0.003 µM) was 101% and the viability, T/C (second compound 0.0316 µM, first compound 0.00949 µM) was 80.7%. The viability, T/C (second compound 0.0316 µM, first compound 0.03 µM) was 49.4%, the viability, T/C (second compound 0.0316 µM, first compound 0.0949 µM) was 10.3% and the viability, T/C (second compound 0.0316 µM, first compound 0.3 µM) was 4.54%. The viability, T/C (second compound 0.1 µM, first compound 0.000949 µM) was 84.2%, the viability, T/C (second compound 0.1 µM, first compound 0.003 µM) was 94.9% and the viability, T/C (second compound 0.1 µM, first compound 0.00949 µM) was 71.8%. It also gave a viability, T/C (second compound 0.1 µM, first compound 0.03 µM) of 48.5%, a viability, T/C (second compound 0.1 µM, first compound 0.0949 µM) of 6.86% and a viability, T/C (second compound 0.1 µM, first compound 0.3 µM) of 2.64%. The viability, T/C (second compound 0.316 µM, first compound 0.000949 µM) was 94.8%, the viability, T/C (second compound 0.316 µM, first compound 0.003 µM) was 82.6% and the viability, T/C (second compound 0.316 µM, first compound 0.00949 µM) was 71.9%. For the same compound, the viability, T/C (second compound 0.316 µM, first compound 0.03 µM) was 36.9%, the viability, T/C (second compound 0.316 µM, first compound 0.0949 µM) was 5.33% and the viability, T/C (second compound 0.316 µM, first compound 0.3 µM) was 1.97%. The viability, T/C (second compound 1 µM, first compound 0.000949 µM) was 76%, the viability, T/C (second compound 1 µM, first compound 0.003 µM) was 80.1% and the viability, T/C (second compound 1 µM, first compound 0.00949 µM) was 57.9%. It also gave a viability, T/C (second compound 1 µM, first compound 0.03 µM) of 37.2%, a viability, T/C (second compound 1 µM, first compound 0.0949 µM) of 3.95% and a viability, T/C (second compound 1 µM, first compound 0.3 µM) of 1.71%. The viability, T/C (second compound 3.16 µM, first compound 0.000949 µM) was 68.7%, the viability, T/C (second compound 3.16 µM, first compound 0.003 µM) was 57.7% and the viability, T/C (second compound 3.16 µM, first compound 0.00949 µM) was 50.6%. The viability, T/C (second compound 3.16 µM, first compound 0.03 µM) was 21.3%, the viability, T/C (second compound 3.16 µM, first compound 0.0949 µM) was 3.51% and the viability, T/C (second compound 3.16 µM, first compound 0.3 µM) was 1.52%. It also gave a viability, T/C (second compound 10 µM, first compound 0.000949 µM) of 47.4%, a viability, T/C (second compound 10 µM, first compound 0.003 µM) of 51.3% and a viability, T/C (second compound 10 µM, first compound 0.00949 µM) of 35.7%. For the same compound, the viability, T/C (second compound 10 µM, first compound 0.03 µM) was 23.6%, the viability, T/C (second compound 10 µM, first compound 0.0949 µM) was 3.04% and the viability, T/C (second compound 10 µM, first compound 0.3 µM) was 1.13%.
`O=C(c1ccc(F)c(F)c1Nc1ccc(I)cc1F)N1CC(O)([C@@H]2CCCCN2)C1` + Cc1c(S(C)(=O)=O)c(-c2cc(F)cc(N3CCN(c4ccc(NS(=O)(=O)c5ccc(NC(CCN6CCC(C(=O)OCCCP(=O)(O)O)CC6)CSc6ccccc6)c(S(=O)(=O)C(F)(F)F)c5)cc4)CC3)c2)c(-c2ccc(Cl)cc2)n1C(C)C showed a pIC50 (second compound 0.0316 µM) of 6.46, a pIC50 (second compound 0.1 µM) of 6.63 and a pIC50 (second compound 0.316 µM) of 6.68. The pIC50 (second compound 1 µM) was 6.76, the pIC50 (second compound 3.16 µM) was 6.91 and the pIC50 (second compound 10 µM) was 7.26. For the same compound, the viability, T/C [1] was 96%, the viability, T/C [2] was 93% and the viability, T/C [3] was 93.3%. For the same compound, the viability, T/C [4] was 74.9%, the viability, T/C [5] was 52.7% and the viability, T/C [6] was 30.2%. For the same compound, the viability, T/C [7] was 101%, the viability, T/C [8] was 102% and the viability, T/C [9] was 103%. It also gave a viability, T/C [10] of 70.2%, a viability, T/C [11] of 45.5% and a viability, T/C [12] of 29.9%. The viability, T/C [13] was 87.1%, the viability, T/C [14] was 84% and the viability, T/C [15] was 87.1%. The viability, T/C [16] was 71.1%, the viability, T/C [17] was 38.1% and the viability, T/C [18] was 22.9%. For the same compound, the viability, T/C [19] was 83.3%, the viability, T/C [20] was 70.9% and the viability, T/C [21] was 84.8%. It also gave a viability, T/C [22] of 66.3%, a viability, T/C [23] of 31.4% and a viability, T/C [24] of 21.8%. It also gave a viability, T/C [25] of 62.8%, a viability, T/C [26] of 71.4% and a viability, T/C [27] of 62.2%. The viability, T/C [28] was 55.8%, the viability, T/C [29] was 26.7% and the viability, T/C [30] was 16.8%. For the same compound, the viability, T/C [31] was 54.1%, the viability, T/C [32] was 57.4% and the viability, T/C [33] was 55%. It also gave a viability, T/C [34] of 45%, a viability, T/C [35] of 26.8% and a viability, T/C [36] of 18.6%.
